Data from patent publication US8304454B2, “Antimicrobial cellulose sponge and method of making” (3M Innovative Properties Company, priority 2007, dated 2012).

Experiment: Water activity of humectant solutions (AquaLab CX-2)
Format: physicochemical
Details: solution concentration 8%
Method: (§1) Water activity (aw) is a measure of the amount of free water available to a microorganism to support growth. Water activity expresses the active portion of the water content as opposed to the total moisture content, which includes “bound water.” The measurements were conducted using the AquaLab CX-2 by Decagon Devices, Inc. by utilizing the chilled mirror/dew point hygrometric methodology for determining water activity. The cellulose sponge was cut into a disk having a 1.5″ inch diameter and 1/16 inch thick.
A commercially available magnesium chloride hexahydrate (MgCl2.6H2O) (EMD Chemical Company, Gibbstown, N.J.), sodium chloride (NaCl) (Fisher Scientific Company, Fair Lawn, N.J.), potassium chloride (KCl) (EMD Chemical Company, Gibbstown, N.J.), and glycerol (EMD Chemical Company, Gibbstown, N.J.) was mixed to obtain a desired concentration. The solution was measured for water activity using the AquaLab CX-2 by Decagon Devices, Inc. The water activity for those solutions is presented in Table 7.

Compared with `[Cl-].[Na+]` [NaCl, sodium chloride], `[Cl-].[K+]` [KCl, potassium chloride] is higher in “Water Activity of humectant solution” value: 0.949 for the first, 0.952 for the second.

Compared with `OCC(O)CO` [Glycerol, glycerol], `O=C([O-])[O-].[K+].[K+]` [Formulation K2CO3] is lower in “Water Activity of humectant solution” value: 0.975 for the first, 0.973 for the second.

In the case of `O.O.O.O.O.O.[Cl-].[Cl-].[Mg+2]` [MgCl2, magnesium chloride hexahydrate (MgCl2.6H2O)], the “Water Activity of humectant solution” value is reported as 0.944.

Same assay, conditions: solution concentration 10%

Compared with `[Cl-].[Na+]` [NaCl, sodium chloride], `[Cl-].[K+]` [KCl, potassium chloride] is higher in “Water Activity of humectant solution” value: 0.936 for the first, 0.950 for the second.

Compared with `OCC(O)CO` [Glycerol, glycerol], `O=C([O-])[O-].[K+].[K+]` [Formulation K2CO3] is lower in “Water Activity of humectant solution” value: 0.971 for the first, 0.960 for the second.

With `O.O.O.O.O.O.[Cl-].[Cl-].[Mg+2]` [MgCl2, magnesium chloride hexahydrate (MgCl2.6H2O)] the “Water Activity of humectant solution” value was 0.926.

Same assay, conditions: solution concentration 12%

First: [Cl-].[Na+] [NaCl, sodium chloride]
Second: [Cl-].[K+] [KCl, potassium chloride]
The “Water Activity of humectant solution” value of the first is lower: 0.919 for the first, 0.938 for the second.

Going from `OCC(O)CO` [Glycerol, glycerol] to `O=C([O-])[O-].[K+].[K+]` [Formulation K2CO3], the “Water Activity of humectant solution” value falls from 0.966 to 0.957.

With `O.O.O.O.O.O.[Cl-].[Cl-].[Mg+2]` [MgCl2, magnesium chloride hexahydrate (MgCl2.6H2O)] the “Water Activity of humectant solution” value was 0.904.

Same assay, conditions: solution concentration 14%

Compared with `OCC(O)CO` [Glycerol, glycerol], `O.O.O.O.O.O.[Cl-].[Cl-].[Mg+2]` [MgCl2, magnesium chloride hexahydrate (MgCl2.6H2O)] is lower in “Water Activity of humectant solution” value: 0.962 for the first, 0.876 for the second.

With `[Cl-].[K+]` [KCl, potassium chloride] the “Water Activity of humectant solution” value was 0.928.

Same assay, conditions: solution concentration 16%

Going from `[Cl-].[Na+]` [NaCl, sodium chloride] to `[Cl-].[K+]` [KCl, potassium chloride], the “Water Activity of humectant solution” value rises from 0.887 to 0.915.

Going from `OCC(O)CO` [Glycerol, glycerol] to `O=C([O-])[O-].[K+].[K+]` [Formulation K2CO3], the “Water Activity of humectant solution” value falls from 0.955 to 0.943.

With `O.O.O.O.O.O.[Cl-].[Cl-].[Mg+2]` [MgCl2, magnesium chloride hexahydrate (MgCl2.6H2O)] the “Water Activity of humectant solution” value was 0.847.

Same assay, conditions: solution concentration 18%

Going from `OCC(O)CO` [Glycerol, glycerol] to `O.O.O.O.O.O.[Cl-].[Cl-].[Mg+2]` [MgCl2, magnesium chloride hexahydrate (MgCl2.6H2O)], the “Water Activity of humectant solution” value falls from 0.950 to 0.841.

In the case of `[Cl-].[K+]` [KCl, potassium chloride], the “Water Activity of humectant solution” value is reported as 0.904.

Same assay, conditions: solution concentration 20%

First: [Cl-].[Na+] [NaCl, sodium chloride]
Second: [Cl-].[K+] [KCl, potassium chloride]
The “Water Activity of humectant solution” value of the first is lower: 0.842 for the first, 0.891 for the second.

First: OCC(O)CO [Glycerol, glycerol]
Second: O=C([O-])[O-].[K+].[K+] [Formulation K2CO3]
The “Water Activity of humectant solution” value of the first is higher: 0.944 for the first, 0.925 for the second.

For `O.O.O.O.O.O.[Cl-].[Cl-].[Mg+2]` [MgCl2, magnesium chloride hexahydrate (MgCl2.6H2O)], the “Water Activity of humectant solution” value was 0.768.

Same assay, conditions: solution concentration 22%

Compared with `OCC(O)CO` [Glycerol, glycerol], `[Cl-].[K+]` [KCl, potassium chloride] is lower in “Water Activity of humectant solution” value: 0.939 for the first, 0.875 for the second.

Same assay, conditions: solution concentration 24%

Going from `OCC(O)CO` [Glycerol, glycerol] to `[Cl-].[K+]` [KCl, potassium chloride], the “Water Activity of humectant solution” value falls from 0.934 to 0.859.

Same assay, conditions: solution concentration 50%

With `OCC(O)CO` [Glycerol, glycerol] the “Water Activity of humectant solution” value was 0.811.

Experiment: Water activity of humectants in cellulose sponges (AquaLab CX-2)
Format: physicochemical
Details: 10 wt. % of input solution
Method: Water Activity (aw) in the Cellulose Sponges
as §1
A prepared cellulose sponge was soaked for 20 minutes in one of the MgCl2 or NaCl humectant solutions from Example 3. After soaking, the cellulose sponge was squeezed out between squeeze rolls and then immediately placed into airtight plastic bags. The samples were tested for water activity within 24 hours.

Compared with `[Cl-].[Na+]` [NaCl, sodium chloride], `O.O.O.O.O.O.[Cl-].[Cl-].[Mg+2]` [MgCl2, magnesium chloride hexahydrate (MgCl2.6H2O)] is lower in “Water Activity of humectant in cellulose sponge” value: 0.926 for the first, 0.913 for the second.

Same assay, conditions: 12 wt. % of input solution

First: [Cl-].[Na+] [NaCl, sodium chloride]
Second: O.O.O.O.O.O.[Cl-].[Cl-].[Mg+2] [MgCl2, magnesium chloride hexahydrate (MgCl2.6H2O)]
The “Water Activity of humectant in cellulose sponge” value of the first is higher: 0.921 for the first, 0.896 for the second.

Same assay, conditions: 14 wt. % of input solution

Compared with `[Cl-].[Na+]` [NaCl, sodium chloride], `O.O.O.O.O.O.[Cl-].[Cl-].[Mg+2]` [MgCl2, magnesium chloride hexahydrate (MgCl2.6H2O)] is lower in “Water Activity of humectant in cellulose sponge” value: 0.900 for the first, 0.890 for the second.

Same assay, conditions: 16 wt. % of input solution

In the case of `[Cl-].[Na+]` [NaCl, sodium chloride], the “Water Activity of humectant in cellulose sponge” value is reported as 0.881.
